{"source": "paper PMC4305006", "about": "(Chemistry & biology, 2014)", "type_in_all_cases": "cell-based, Mycobacterium tuberculosis", "key": {"[1]": {"test_system": "Mtb H37Rv with 1 μM supplemental biotin"}, "[2]": {"test_system": "Mtb H37Rv without supplemental biotin", "settings": "90% inhibition, 14 days"}, "[3]": {"test_system": "Mtb BioA under-expression strain (BioA-UE)", "settings": "90% inhibition, biotin-free Sauton's medium, 14 days"}}}
{"smiles": "C=C(CCC(=O)O)c1nc2ccccc2s1", "note": "[Compound 13, 4-(benzothiazol-2-yl)pentenoic acid]", "values": [{"measurement": "shift of MIC upon addition of biotin", "setting": "[1]", "result": "approximately 3 fold"}, {"measurement": "MIC90 WT+biotin", "setting": "[1]; 90% inhibition, Mtb H37Rv with 1 μM supplemental biotin, 14 days", "result": 8.7, "unit": "µM"}, {"measurement": "MIC90 WT -biotin", "setting": "[2]", "result": 2.5, "unit": "µM"}, {"measurement": "MIC90 BioA-UE", "setting": "[3]", "result": 0.7, "unit": "µM"}]}
